As a reminder, the mortality is the percentage killed.

This note sets out measurements from patent publication US20250228239A1, “MOLECULES HAVING PESTICIDAL UTILITY, AND INTERMEDIATES, COMPOSITIONS, AND PROCESSES, RELATED THERETO” (priority 2024, published 2025).

What all share (format): in vivo
Data set [1] has as its system Beet Armyworm (Spodoptera exigua, LAPHEG). The data set is described as follows: Bioassays on Beet Armyworm (BAW), 128-well diet tray assay. To be noted: Spodoptera exigua. A digest of the protocol:
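Percent larval mortality, averaged across eight wells, scored after five to seven days at 25° C. under 14:10 light-dark. Each well held one to five second instars feeding on diet dosed at 50 μg/cm^2 with compound from 90:10 acetone-water, solvent dried off.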

Data set [2] deals with Yellow Fever Mosquito (Aedes aegypti, AEDSAE). To be noted: for YFM rating: Table ABC / ABC-DP rating. In outline: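 Compounds from 4000 ppm DMSO stocks were diluted in 90:10 water/acetone and dispensed into wells, then infested with about 1-day-old larvae in liver-powder water. Covered plates were held at room temperature for 3 days and each well was scored for mortality against a rating scale; six replicate plates per compound.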

The subject of data set [3] is Cabbage Looper (Trichoplusia ni, TRIPNI). The data set is described as follows: Bioassays on Cabbage Looper (CL), 128-well diet tray assay. To be noted: Trichoplusia ni. A digest of the protocol: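 Test molecule was dissolved in 90:10 acetone-water, applied to artificial diet at 50 μg/cm^2 and allowed to dry. Second-instar larvae were then added, one to five per well, and trays held at 25° C for five to seven days before mortality was scored and averaged.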

Setting [4] is: Table ABC: Biological Results, species BAW, read-out: BAW.
Setting [5] is: Table ABC: Biological Results, species YFM.
Setting [6] is: Table ABC: Biological Results, species CL, read-out: CL.
The mark [7] stands for this setting: Beet Armyworm, Table ABC / ABC-DP rating, read-out: BAW rating.
Where [8] appears, read: Cabbage Looper, Table ABC / ABC-DP rating, read-out: CL rating.
The mark [9] stands for this setting: Beet Armyworm, rating class, read-out: BAW.
Setting [10] is: Yellow Fever Mosquito, rating class.
The mark [11] stands for this setting: Cabbage Looper, rating class, read-out: CL.

Read-outs that look alike come from different tables or passages of the source.

On to `O=C(Nc1ccc(F)cc1F)c1cc(NC(=O)[C@H]2[C@H](c3ccc(F)c(Cl)c3)C2(Cl)Cl)cc(F)c1Cl` (relative stereo) [F1153, trans-2-Chloro-5-(2,2-dichloro-3-(3-chloro-4-fluorophenyl)cyclopropane-1-carboxamido)-N-(2,4-difluorophenyl)-3-fluorobenzamide], for which the pest or weed control at 50 µg/cm2 in data set [1] (setting [4]) and in data set [3] (setting [6]) was 50 to 100% in each case. Further, in data set [2] (setting [5]), the YFM entry is “A (80–100)”.
In the case of `O=C(NNc1ccc(F)cc1)c1cc(NC(=O)[C@H]2[C@H](c3cc(Cl)cc(Cl)c3)C2(Cl)Cl)ccc1Cl` (relative stereo) [F2553, trans-2,2-Dichloro-N-(4-chloro-3-(2-(4-fluorophenyl)hydrazine-1-carbonyl)phenyl)-3-(3,5-dichlorophenyl)cyclopropane-1-carboxamide], the pest or weed control at 50 µg/cm2 in data set [1] (setting [7]) and in data set [3] (setting [8]) was 50 to 100% throughout. Moreover, the YFM rating entry in data set [2] (Yellow Fever Mosquito) was “A (80–100)”.
Turning to `Nc1c(F)ccc(NC(=O)c2cc(NC(=O)[C@H]3[C@H](c4ccc(Cl)c(C(F)F)c4)C3(Cl)Cl)ccc2Cl)c1F` (relative stereo) [F1037, trans-N-(3-Amino-2,4-difluorophenyl)-2-chloro-5-(2,2-dichloro-3-(4-chloro-3-(difluoromethyl)phenyl)cyclopropane-1-carboxamido)benzamide], the pest or weed control at 50 µg/cm2 in data set [1] (setting [4]) and in data set [3] (setting [6]) was 50 to 100% each time. The YFM result in data set [2] (setting [5]) is listed as “A (80–100)”.
As for `CC(OC(F)(F)F)C(=O)Nc1c(F)ccc(NC(=O)c2cc(NC(=O)[C@H]3[C@H](c4ccc(Cl)c(Cl)c4)C3(Cl)Cl)ccc2Cl)c1F` (stereo partly drawn) [F1767, 2-Chloro-5-((1R,3R)-2,2-dichloro-3-(3,4-dichlorophenyl)cyclopropane-1-carboxamido)-N-(2,4-difluoro-3-(2-(trifluoromethoxy)propanamido)phenyl)benzamide], the pest or weed control at 50 µg/cm2 in data set [1] (setting [7]) and in data set [3] (setting [8]) was 50 to 100% throughout. The YFM rating entry in data set [2] (Yellow Fever Mosquito) is “A (80–100)”.
In the case of `CC(=O)CNC(=O)c1cc(NC(=O)[C@H]2[C@H](c3cc(Cl)cc(Cl)c3)C2(Cl)Cl)cc(F)c1Cl` (relative stereo) [F2090, trans-2-Chloro-5-(2,2-dichloro-3-(3,5-dichlorophenyl)cyclopropane-1-carboxamido)-3-fluoro-N-(2-oxopropyl)benzamide], the pest or weed control at 50 µg/cm2 in data set [1] (setting [7]) and in data set [3] (setting [8]) was 50 to 100% each time. Further, the YFM rating result in data set [2] (Yellow Fever Mosquito) is listed as “A (80–100)”.
`CCOC(C)(C)C(=O)Nc1c(F)ccc(NC(=O)c2cc(NC(=O)[C@H]3[C@H](c4ccc(Cl)c(Cl)c4)C3(Cl)Cl)ccc2Cl)c1F` [F1605, 2-Chloro-5-((1R,3R)-2,2-dichloro-3-(3,4-dichlorophenyl)cyclopropane-1-carboxamido)-N-(3-(2-ethoxy-2-methylpropanamido)-2,4-difluorophenyl)benzamide]: the pest or weed control at 50 µg/cm2 in data set [1] (setting [9]) and in data set [3] (setting [11]) was 50 to 100% each time. For the same compound, in data set [2] (setting [10]), the YFM entry was “A (80–100)”.
For `Nc1c(F)ccc(NC(=O)c2cc(NC(=O)[C@H]3[C@H](c4ccc(S(F)(F)(F)(F)F)cc4)C3(Cl)Cl)ccc2Cl)c1F` (relative stereo) [F1142, trans-N-(3-Amino-2,4-difluorophenyl)-2-chloro-5-(2,2-dichloro-3-(4-(pentafluoro-λ^6-sulfanyl)phenyl)cyclopropane-1-carboxamido)benzamide], the pest or weed control at 50 µg/cm2 in data set [1] (setting [4]) and in data set [3] (setting [6]) was 50 to 100% each time. Further, the YFM result in data set [2] (setting [5]) is “A (80–100)”.
In the case of `O=C(COC(F)(F)F)Nc1c(F)ccc(NC(=O)c2cc(NC(=O)[C@H]3[C@H](c4ccc(F)c(Br)c4)C3(Cl)Cl)ccc2Cl)c1F` [F1780, 5-((1R,3R)-3-(3-Bromo-4-fluorophenyl)-2,2-dichlorocyclopropane-1-carboxamido)-2-chloro-N-(2,4-difluoro-3-(2-(trifluoromethoxy)acetamido)phenyl)benzamide], the pest or weed control at 50 µg/cm2 in data set [1] (setting [7]) and in data set [3] (setting [8]) was 50 to 100% each time. In addition, in data set [2] (Yellow Fever Mosquito), the YFM rating result is “A (80–100)”.
With `O=C(Nc1cc(NC(=O)C(F)(F)F)c(F)cc1F)c1cc(NC(=O)[C@H]2[C@H](c3ccc(Cl)c(Cl)c3)C2(Cl)Cl)ccc1F` [F1510, 5-((1R,3R)-2,2-Dichloro-3-(3,4-dichlorophenyl)cyclopropane-1-carboxamido)-N-(2,4-difluoro-5-(2,2,2-trifluoroacetamido)phenyl)-2-fluorobenzamide], the pest or weed control at 50 µg/cm2 in data set [1] (setting [9]) and in data set [3] (setting [11]) was 50 to 100% in each case. Moreover, in data set [2] (setting [10]), the YFM result was “A (80–100)”.
Turning to `O=C(Nc1ccc(F)c(NC(=O)C(F)F)c1F)c1cc(NC(=O)[C@H]2[C@H](c3ccc(F)c(C(F)(F)F)c3)C2(Cl)Cl)ccc1Cl` [F1175, 2-Chloro-5-((1R,3R)-2,2-dichloro-3-(4-fluoro-3-(trifluoromethyl)phenyl)cyclopropane-1-carboxamido)-N-(3-(2,2-difluoroacetamido)-2,4-difluorophenyl)benzamide], the pest or weed control at 50 µg/cm2 in data set [1] (setting [4]) and in data set [3] (setting [6]) was 50 to 100% each time. For the same compound, in data set [2] (setting [5]), the YFM result is on record as “A (80–100)”.
As for `Cc1cc(N)ccc1NC(=O)c1cc(NC(=O)[C@H]2[C@H](c3cc(Cl)cc(Cl)c3)C2(Cl)Cl)ccc1Cl` (relative stereo) [DP4, trans-N-(4-Amino-2-methylphenyl)-2-chloro-5-(2,2-dichloro-3-(3,5-dichlorophenyl)cyclopropane-1-carboxamido)benzamide], the mortality at 50 µg/cm2 lay in the range of 50 to 100% in data set [1] (168 h, second instar larvae, 50 μg/cm^2 of test molecule on artificial diet, 25° C., five to seven days, average of eight wells, read-out: BAW % Control (or Mortality) rating) and 50 to 100% in data set [3] (168 h, second instar larvae, 50 μg/cm^2 of test molecule on artificial diet, 25° C., five to seven days, average of eight wells, read-out: CL % Control (or Mortality) rating). For the same compound, the pest or weed control at 50 µg/cm2 in data set [1] (setting [7]) and in data set [3] (setting [8]) was 50 to 100% throughout. In addition, the YFM rating entry in data set [2] (Yellow Fever Mosquito) was “A (80–100)”. In addition, the “YFM % Control (or Mortality) rating” value in data set [2] (about 1 day-old larvae, 4000 ppm master solution diluted with 90:10 water/acetone, 15 μL per well plus 220 μL larval mixture, 3 days, mortality) is “A (80–100)”.
Turning to `O=C(Nc1ccc(F)cc1F)c1cc(NC(=O)[C@H]2[C@H](c3c(F)c(F)c(F)c(F)c3F)C2(Cl)Cl)ccc1Cl` (relative stereo) [F1009, trans-2-Chloro-5-(2,2-dichloro-3-(perfluorophenyl)cyclopropane-1-carboxamido)-N-(2,4-difluorophenyl)benzamide], the pest or weed control at 50 µg/cm2 in data set [1] (setting [4]) and in data set [3] (setting [6]) was 50 to 100% in each case. Moreover, the YFM result in data set [2] (setting [5]) is on record as “A (80–100)”.
For `O=C(NNc1ccncn1)c1cc(NC(=O)[C@H]2[C@H](c3cc(Cl)cc(Cl)c3)C2(Cl)Cl)ccc1Cl` (relative stereo) [F2509, trans-2,2-Dichloro-N-(4-chloro-3-(2-(pyrimidin-4-yl)hydrazine-1-carbonyl)phenyl)-3-(3,5-dichlorophenyl)cyclopropane-1-carboxamide], the pest or weed control at 50 µg/cm2 in data set [1] (setting [7]) and in data set [3] (setting [8]) was 50 to 100% throughout. Also, the YFM rating result in data set [2] (Yellow Fever Mosquito) is reported as “A (80–100)”.
`CCOCCC(=O)Nc1c(F)ccc(NC(=O)c2cc(NC(=O)[C@H]3[C@H](c4ccc(Cl)c(Cl)c4)C3(Cl)Cl)ccc2Cl)c1F` [F1419, 2-Chloro-5-((1R,3R)-2,2-dichloro-3-(3,4-dichlorophenyl)cyclopropane-1-carboxamido)-N-(3-(3-ethoxypropanamido)-2,4-difluorophenyl)benzamide]: the pest or weed control at 50 µg/cm2 in data set [1] (setting [9]) and in data set [3] (setting [11]) was 50 to 100% in each case. In data set [2] (setting [10]), the YFM result is “A (80–100)”.
